Measured values published in patent US20260297060A1, “COMPOUNDS FOR THE DEGRADATION OF MUTANT BRAF” (C4 THERAPEUTICS, INC., priority 2023, published 2026).
Read-outs that look alike come from different tables or passages of the source.

Assays:
BRAF V600E = molecular target: T1, BRAF V600E (Homo sapiens, UniProt P15056+Q96SW2, V600E); experiment: BRAF V600E HiBiT Degradation Assay; assay type: cell-based
T1 construct: knock-in of the HiBiT tag to the endogenous BRAF V600E locus; host or cells: A375.10 (A375 clonal line, CRISPR HiBiT knock-in at the endogenous BRAF V600E locus)
T1 sequence (P15056 whole entry V600E): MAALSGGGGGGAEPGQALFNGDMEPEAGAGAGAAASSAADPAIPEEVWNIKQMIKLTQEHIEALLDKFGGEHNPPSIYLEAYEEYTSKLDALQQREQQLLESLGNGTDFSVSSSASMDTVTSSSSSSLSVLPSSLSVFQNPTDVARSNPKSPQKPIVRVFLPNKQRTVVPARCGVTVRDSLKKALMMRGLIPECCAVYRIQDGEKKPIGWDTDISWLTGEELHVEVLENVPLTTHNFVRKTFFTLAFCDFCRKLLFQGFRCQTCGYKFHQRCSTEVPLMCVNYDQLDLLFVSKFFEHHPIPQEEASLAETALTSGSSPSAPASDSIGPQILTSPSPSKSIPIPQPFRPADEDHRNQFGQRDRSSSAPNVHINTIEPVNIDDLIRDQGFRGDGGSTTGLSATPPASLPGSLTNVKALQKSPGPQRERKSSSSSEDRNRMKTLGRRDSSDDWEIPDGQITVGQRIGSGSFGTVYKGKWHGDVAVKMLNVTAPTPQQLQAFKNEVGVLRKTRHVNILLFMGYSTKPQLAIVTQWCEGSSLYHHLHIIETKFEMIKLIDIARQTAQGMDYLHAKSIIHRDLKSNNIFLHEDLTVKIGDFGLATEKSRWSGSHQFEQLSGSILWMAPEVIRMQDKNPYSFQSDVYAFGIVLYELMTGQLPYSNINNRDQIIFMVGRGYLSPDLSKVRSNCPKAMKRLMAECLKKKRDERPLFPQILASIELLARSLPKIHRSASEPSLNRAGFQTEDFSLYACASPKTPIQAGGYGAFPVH
T1 sequence (Q96SW2 whole entry): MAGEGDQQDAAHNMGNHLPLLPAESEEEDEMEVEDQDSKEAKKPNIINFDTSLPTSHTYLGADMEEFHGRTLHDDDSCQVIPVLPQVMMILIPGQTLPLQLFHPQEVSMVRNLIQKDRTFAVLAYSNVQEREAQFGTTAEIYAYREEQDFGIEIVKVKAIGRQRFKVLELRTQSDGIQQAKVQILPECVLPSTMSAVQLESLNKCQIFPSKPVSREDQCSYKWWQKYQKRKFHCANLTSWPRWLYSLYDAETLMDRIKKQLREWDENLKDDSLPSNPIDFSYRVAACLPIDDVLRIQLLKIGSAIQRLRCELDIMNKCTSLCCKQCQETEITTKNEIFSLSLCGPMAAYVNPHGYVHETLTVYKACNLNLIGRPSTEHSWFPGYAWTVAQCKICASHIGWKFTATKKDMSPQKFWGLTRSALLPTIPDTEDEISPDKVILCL
T1 sequence (Q16531 whole entry partner): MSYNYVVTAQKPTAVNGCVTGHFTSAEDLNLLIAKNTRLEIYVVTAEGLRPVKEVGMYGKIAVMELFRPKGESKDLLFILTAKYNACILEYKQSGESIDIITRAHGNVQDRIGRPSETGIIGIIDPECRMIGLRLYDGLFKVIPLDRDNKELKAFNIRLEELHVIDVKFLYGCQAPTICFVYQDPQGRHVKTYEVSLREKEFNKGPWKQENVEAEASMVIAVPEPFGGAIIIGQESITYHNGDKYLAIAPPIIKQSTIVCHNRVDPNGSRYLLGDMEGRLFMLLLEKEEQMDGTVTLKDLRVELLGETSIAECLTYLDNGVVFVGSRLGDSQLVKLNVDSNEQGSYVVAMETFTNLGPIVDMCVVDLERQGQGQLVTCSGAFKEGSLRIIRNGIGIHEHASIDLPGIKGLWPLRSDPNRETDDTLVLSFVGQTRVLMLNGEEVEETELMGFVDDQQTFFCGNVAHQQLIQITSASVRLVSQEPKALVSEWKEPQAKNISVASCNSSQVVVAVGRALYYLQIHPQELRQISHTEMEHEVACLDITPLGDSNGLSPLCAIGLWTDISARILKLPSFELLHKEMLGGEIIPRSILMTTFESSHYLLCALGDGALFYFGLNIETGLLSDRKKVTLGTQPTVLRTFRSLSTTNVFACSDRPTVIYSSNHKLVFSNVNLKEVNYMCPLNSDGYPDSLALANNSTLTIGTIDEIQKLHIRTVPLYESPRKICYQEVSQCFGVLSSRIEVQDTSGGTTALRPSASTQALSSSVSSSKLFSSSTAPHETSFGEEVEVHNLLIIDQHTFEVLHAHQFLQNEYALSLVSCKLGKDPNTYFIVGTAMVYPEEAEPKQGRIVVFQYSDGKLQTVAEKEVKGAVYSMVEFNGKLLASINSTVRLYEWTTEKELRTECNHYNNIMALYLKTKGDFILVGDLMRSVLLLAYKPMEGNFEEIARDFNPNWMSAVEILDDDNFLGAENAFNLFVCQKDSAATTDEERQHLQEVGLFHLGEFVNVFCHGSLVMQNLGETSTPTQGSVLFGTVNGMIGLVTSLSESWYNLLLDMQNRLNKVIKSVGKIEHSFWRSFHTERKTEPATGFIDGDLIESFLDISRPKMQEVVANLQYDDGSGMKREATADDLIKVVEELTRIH
Summary of the method: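 Endogenous HiBiT knock-in on BRAF V600E in A375 cells (clone A375.10); 11-point half-log series, top 10 μM, 2, 6 or 24 h at 37° C. Lytic HiBiT luminescence, background-subtracted, normalized to DMSO; 4-parameter fit gives DC50, Emax (residual protein) and IP (inflection point).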

A375-NRAS^Q61K cells = experiment: CTGlo Cell Viability Assay, A375-NRAS^Q61K (A375.11) cells, 96 hours; assay type: cell-based, human; settings: Homo sapiens, A375.11 (A375-NRAS^Q61K) cells; for Emax: lowest % viability achieved
Summary of the method: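 Viability as CellTiter-Glo ATP luminescence after 96 h compound exposure at 37 °C; A375.11 (BRAF V600E/NRAS Q61K) cells at 250/well, top final concentration 10 μM in half-log steps. Signal was background-corrected and set relative to DMSO controls. A 4-parameter logistic fit gave GI50 (50% crossing) and Emax.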

[1] = A375.10 cells, BRAF V600E, 2 hours, inflection point, read-out: HiBiT-Degradation A375.10 BRAF 2 hours IP
[2] = A375.10 cells, BRAF V600E, 2 hours, read-out: HiBiT-Degradation A375.10 BRAF 2 hours DC50
[3] = A375.10 cells, BRAF V600E, 2 hours, residual protein remaining, read-out: HiBiT-Degradation A375.10 BRAF 2 hours Emax
[4] = A375.10 cells, HiBiT, BRAF V600E, 24 hours, read-out: HiBiT-Degradation A375.10 BRAF 24 hours DC50
[5] = A375.10 cells, HiBiT, BRAF V600E, 24 hours, read-out: HiBiT-Degradation A375.10 BRAF 24 hours Emax
[6] = A375.10 cells, HiBiT, BRAF V600E, 24 hours, read-out: HiBiT-Degradation A375.10 BRAF 24 hours IP

DC50 (BRAF V600E; [1])	DC50 (BRAF V600E; [2])	Emax (BRAF V600E; read-out: HiBiT-Degradation A375.10 BRAF 2 hours Emax)	GI50 (A375-NRAS^Q61K cells)	Emax (BRAF V600E; [3])	GI50 (A375-NRAS^Q61K cells; 96 h)	Emax (BRAF V600E; read-out: HiBiT-Degradation A375.10 BRAF 2 hours Emax, A375.10 cells, BRAF V600E, 2 hours, residual protein remaining)	DC50 (BRAF V600E; [4])	Emax (BRAF V600E; [5])	DC50 (BRAF V600E; [6])	Structure (SMILES)	Emax (A375-NRAS^Q61K cells)	Emax (A375-NRAS^Q61K cells; 96 h)
< 1000 nM	> 10000 nM	50 to 90%	> 10000 nM	–	–	–	–	–	–	CCN(C)S(=O)(=O)Nc1ccc(F)c(Oc2ccc3ncn([C@H]4COC5(CCN(C6C7COCC6CC(c6ccc(NC8CCC(=O)NC8=O)cc6F)C7)CC5)C4)c(=O)c3c2)c1C#N (stereo partly drawn) [Compound 194, (3R)-3-[6-[2-cyano-3-[[ethyl(methyl)sulfamoyl]amino]-6-fluoro-phenoxy]-4-oxo-quinazolin-3-yl]-8-[7-[4-[(2,6-dioxo-3-piperidyl)amino]-2-fluoro-phenyl]-3-oxabicyclo[3.3.1]nonan-9-yl]-1-oxa-8-azaspiro[4.5]decane]	50 to 90%	–
< 1000 nM	1000 to 10000 nM	–	–	50 to 90%	1000 to 10000 nM	–	–	–	–	CN(CCO)S(=O)(=O)Nc1ccc(F)c(Oc2ccc3ncn(C4CC5(CCN(C6CC7(C6)CN(c6cc8c(cc6F)c(N6CCC(=O)NC6=O)nn8C)C7)CC5)C4)c(=O)c3c2)c1F (centres unmarked) [Compound 197, 6-[2,6-difluoro-3-[[2-hydroxyethyl(methyl)sulfamoyl]amino]phenoxy]-3-[7-[2-[3-(2,4-dioxohexahydropyrimidin-1-yl)-5-fluoro-1-methyl-indazol-6-yl]-2-azaspiro[3.3]heptan-6-yl]-7-azaspiro[3.5]nonan-2-yl]-4-oxo-quinazoline]	–	50 to 90%
< 1000 nM	< 1000 nM	–	–	–	< 1000 nM	< 50%	–	–	–	CCN(C)S(=O)(=O)Nc1ccc(F)c(C(=O)c2ccc3ncn([C@H]4COC5(CCN(C6CCC(c7cc8c(cc7F)c(N7CCC(=O)NC7=O)nn8C)CC6)CC5)C4)c(=O)c3c2)c1F (stereo partly drawn) [Compound 208, (3R)-8-[4-[3-(2,4-dioxohexahydropyrimidin-1-yl)-5-fluoro-1-methyl-indazol-6-yl]cyclohexyl]-3-[6-[3-[[ethyl(methyl)sulfamoyl]amino]-2,6-difluoro-benzoyl]-4-oxo-quinazolin-3-yl]-1-oxa-8-azaspiro[4.5]decane]	–	50 to 90%
< 1000 nM	< 1000 nM	–	–	50 to 90%	1000 to 10000 nM	–	–	–	–	CCN(C)S(=O)(=O)Nc1ccc(F)c(Oc2ccc3ncn(C4CC5(CCN([C@H]6C[C@@H](c7cc8c(cc7F)c(N7CCC(=O)NC7=O)nn8C)C6)CC5)C4)c(=O)c3c2)c1C#N [Compound 209, 6-[2-cyano-3-[[ethyl(methyl)sulfamoyl]amino]-6-fluoro-phenoxy]-3-[7-[3-[3-(2,4-dioxohexahydropyrimidin-1-yl)-5-fluoro-1-methyl-indazol-6-yl]cyclobutyl]-7-azaspiro[3.5]nonan-2-yl]-4-oxo-quinazoline]	–	< 50%
< 1000 nM	< 1000 nM	–	–	< 50%	< 1000 nM	–	–	–	–	CCN(C)S(=O)(=O)Nc1ccc(F)c(Oc2ccc3ncn(C4CC5(CCN(C6COC7(CCN(c8cc9c(cc8F)c(N8CCC(=O)NC8=O)nn9C)CC7)C6)CC5)C4)c(=O)c3c2)c1C#N (centres unmarked) [Compound 216]	–	50 to 90%
< 1000 nM	< 1000 nM	–	–	< 50%	1000 to 10000 nM	–	–	–	–	CCN(C)S(=O)(=O)Nc1ccc(F)c(Oc2ccc3ncn(C4CC5(CC(N6CC[C@H](c7cc8c(cc7F)c(N7CCC(=O)NC7=O)nn8C)C(F)(F)C6)C5)C4)c(=O)c3c2)c1C#N (stereo partly drawn) [Compound 217, 6-[2-cyano-3-[[ethyl(methyl)sulfamoyl]amino]-6-fluoro-phenoxy]-3-[2-[(4R)-4-[3-(2,4-dioxohexahydropyrimidin-1-yl)-5-fluoro-1-methyl-indazol-6-yl]-3,3-difluoro-1-piperidyl]spiro[3.3]heptan-6-yl]-4-oxo-quinazoline]	–	50 to 90%
< 1000 nM	> 10000 nM	–	–	50 to 90%	> 10000 nM	–	–	–	–	CCN(C)S(=O)(=O)Nc1ccc(F)c(Oc2ccc3ncn(C4CC5(CCN(C6CCC7(CC6)CN(c6cc8c(cc6F)c(N6CCC(=O)NC6=O)nn8C)C7)CC5)C4)c(=O)c3c2)c1C#N (centres unmarked) [Compound 220, 6-[2-cyano-3-[[ethyl(methyl)sulfamoyl]amino]-6-fluoro-phenoxy]-3-[7-[2-[3-(2,4-dioxohexahydropyrimidin-1-yl)-5-fluoro-1-methyl-indazol-6-yl]-2-azaspiro[3.5]nonan-7-yl]-7-azaspiro[3.5]nonan-2-yl]-4-oxo-quinazoline]	–	50 to 90%
< 1000 nM	< 1000 nM	–	–	< 50%	1000 to 10000 nM	–	–	–	–	CCN(C)S(=O)(=O)Nc1ccc(F)c(Oc2ccc3ncc(OCC4CCN(C5CC6(C5)CN(c5cc7c(cc5F)c(N5CCC(=O)NC5=O)nn7C)C6)CC4)nc3c2)c1C#N [Compound 223, 7-[2-cyano-3-[[ethyl(methyl)sulfamoyl]amino]-6-fluoro-phenoxy]-2-[[1-[2-[3-(2,4-dioxohexahydropyrimidin-1-yl)-5-fluoro-1-methyl-indazol-6-yl]-2-azaspiro[3.3]heptan-6-yl]-4-piperidyl]methoxy]quinoxaline]	–	50 to 90%
< 1000 nM	< 1000 nM	–	–	< 50%	< 1000 nM	–	–	–	–	CCN(C)S(=O)(=O)Nc1ccc(F)c(Oc2ccc3ncn(C4CC5(CCC(N6CC[C@H](c7cc8c(cc7F)c(N7CCC(=O)NC7=O)nn8C)C(F)(F)C6)CC5)C4)c(=O)c3c2)c1C#N (stereo partly drawn) [Compound 224, 6-[2-cyano-3-[[ethyl(methyl)sulfamoyl]amino]-6-fluoro-phenoxy]-3-[7-[(4R)-4-[3-(2,4-dioxohexahydropyrimidin-1-yl)-5-fluoro-1-methyl-indazol-6-yl]-3,3-difluoro-1-piperidyl]spiro[3.5]nonan-2-yl]-4-oxo-quinazoline]	–	50 to 90%
< 1000 nM	< 1000 nM	–	–	< 50%	< 1000 nM	–	–	–	–	CCN(C)S(=O)(=O)Nc1ccc(F)c(Oc2ccc3ncn(C4CC5(CCC(N6CC[C@@H](c7cc8c(cc7F)c(N7CCC(=O)NC7=O)nn8C)C(F)(F)C6)CC5)C4)c(=O)c3c2)c1C#N (stereo partly drawn) [Compound 225, 6-[2-cyano-3-[[ethyl(methyl)sulfamoyl]amino]-6-fluoro-phenoxy]-3-[7-[(4S)-4-[3-(2,4-dioxohexahydropyrimidin-1-yl)-5-fluoro-1-methyl-indazol-6-yl]-3,3-difluoro-1-piperidyl]spiro[3.5]nonan-2-yl]-4-oxo-quinazoline]	–	< 50%
< 1000 nM	< 1000 nM	–	–	< 50%	< 1000 nM	–	< 1000 nM	< 50%	< 1000 nM	CCN(C)S(=O)(=O)Nc1ccc(F)c(Oc2ccc3ncn(C4CC5(CCN(CC6(O)CCN(c7cc8c(cc7F)c(N7CCC(=O)NC7=O)nn8C)CC6)CC5)C4)c(=O)c3c2)c1C#N [Compound 226, 6-[2-cyano-3-[[ethyl(methyl)sulfamoyl]amino]-6-fluoro-phenoxy]-3-[7-[[1-[3-(2,4-dioxohexahydropyrimidin-1-yl)-5-fluoro-1-methyl-indazol-6-yl]-4-hydroxy-4-piperidyl]methyl]-7-azaspiro[3.5]nonan-2-yl]-4-oxo-quinazoline]	–	50 to 90%
< 1000 nM	< 1000 nM	–	–	< 50%	1000 to 10000 nM	–	–	–	–	CCN(C)S(=O)(=O)Nc1ccc(F)c(Oc2ccc3ncn(C4CC5(CC(N6CC[C@@H](c7cc8c(cc7F)c(N7CCC(=O)NC7=O)nn8C)C(F)(F)C6)C5)C4)c(=O)c3c2)c1C#N (stereo partly drawn) [Compound 227, 6-[2-cyano-3-[[ethyl(methyl)sulfamoyl]amino]-6-fluoro-phenoxy]-3-[2-[(4S)-4-[3-(2,4-dioxohexahydropyrimidin-1-yl)-5-fluoro-1-methyl-indazol-6-yl]-3,3-difluoro-1-piperidyl]spiro[3.3]heptan-6-yl]-4-oxo-quinazoline]	–	50 to 90%
< 1000 nM	< 1000 nM	–	–	< 50%	< 1000 nM	–	< 1000 nM	< 50%	< 1000 nM	CCN(C)S(=O)(=O)Nc1ccc(F)c(Oc2ccc3ncn([C@H]4COC5(CCN(CC6(O)CCN(c7cc8c(cc7F)c(N7CCC(=O)NC7=O)nn8C)CC6)CC5)C4)c(=O)c3c2)c1C#N [Compound 230, (3R)-3-[6-[2-cyano-3-[[ethyl(methyl)sulfamoyl]amino]-6-fluoro-phenoxy]-4-oxo-quinazolin-3-yl]-8-[[1-[3-(2,4-dioxohexahydropyrimidin-1-yl)-5-fluoro-1-methyl-indazol-6-yl]-4-hydroxy-4-piperidyl]methyl]-1-oxa-8-azaspiro[4.5]decane]	–	50 to 90%
